For test [1], the system named is Cpe30 peptide. Format: binding, Clostridium perfringens.
Test [2] has as its target Cpe17 (last C-terminal 17 amino acids of Cpe), biotinylated (Clostridium perfringens) (UniProt P01558). The experiment in a line: SPR.
Test [3] addresses Biotin-Cpe30 (Clostridium perfringens) (UniProt P01558). The experiment in a line: SPR. For orientation: Surface plasmon resonance follows binding to a sensor surface in real time, without labels.
The target of test [4] is T1, GST-claudin-4, full length (mouse, UniProt O35054 1-210).
T1 sequence: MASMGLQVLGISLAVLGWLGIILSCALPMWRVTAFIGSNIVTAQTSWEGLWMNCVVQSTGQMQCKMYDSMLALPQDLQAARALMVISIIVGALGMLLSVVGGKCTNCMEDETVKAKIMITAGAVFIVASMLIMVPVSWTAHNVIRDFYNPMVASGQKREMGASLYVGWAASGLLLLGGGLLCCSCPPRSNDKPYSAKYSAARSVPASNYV
The test is described as follows: SPR.

The source of these data is PMC2576538 (The Journal of Biological Chemistry, 2008).

Ends that are not written are not given here. * marks the point of attachment. Biotin = O=C1N[C@H]2[C@H](CS[C@H]2CCCCC(=O)*)N1

One may read the Kd as the constant that tells how readily two partners part at equilibrium. A high value points to weaker binding.

For the molecule “(138)AHNVIRDFYNPM VASGQKREMGASL(160) [B-Ecl2]”, the “Binding of immobilized Ecl2 peptide to Cpe30, in words” value in test [1] was “does not bind”. Same read-out and setting: as for “AHNVIRDFYNPMVASGQKREMGASL (disulfide (positions not given here)) [B-lariat-Ecl2]”, the entry is “does not bind”; as for AHNVIRDFYNPMVASGQKREMGASL [B-Ecl2-B], “does not bind”. For the molecule “GST-Cldn-4.R4 (GST fused to claudin-4 from Ecl2 through the C terminus) (domain or fragment)”, the dissociation constant Kd amounted to 1.57 nM in test [2] and 2.56 nM in test [3].

B1: Biotin-Cpe30 (peptide)
peptide: Biotin-SLDAGQYVLVMKANSSYSGNYPYSILFQKF
As for B1, in test [4], the binding result is “binds”.
